The target in assay [1] is Concanavalin-A (Canavalia ensiformis) (UniProt P02866). The assay can be described thus: Inhibition of Canavalia ensiformis concanavalin A binding to yeast mannan at 11 mM by ELLA.
In a further assay the target is Concanavalin-A (Canavalia ensiformis, UniProt P02866). The assay is described as follows: Inhibition of Canavalia ensiformis concanavalin A binding to yeast mannan by ELLA.
Concanavalin-A, sequence (P02866 whole entry): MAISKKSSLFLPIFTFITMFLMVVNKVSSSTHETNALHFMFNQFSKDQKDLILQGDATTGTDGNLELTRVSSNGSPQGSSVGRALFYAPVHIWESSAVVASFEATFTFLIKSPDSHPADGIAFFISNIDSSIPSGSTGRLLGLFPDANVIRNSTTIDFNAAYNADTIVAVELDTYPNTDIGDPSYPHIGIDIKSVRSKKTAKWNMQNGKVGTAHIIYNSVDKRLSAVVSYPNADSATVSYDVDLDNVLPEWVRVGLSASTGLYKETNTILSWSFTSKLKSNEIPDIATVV

Concanavalin-A (Canavalia ensiformis), sequence (P02866 whole entry): as above

Compound `NS(=O)(=O)c1ccc(/N=N/c2cnc(O)c(O)c2)cc1` gave an inhibition in assay [1] of 49%. In the case of `NS(=O)(=O)c1ccc(/N=N/c2nc3nc(O)nc(O)c3[nH]2)cc1`, the IC50 at Concanavalin-A was found to be 615 µM.

As to `NS(=O)(=O)c1ccc(/N=N/c2cccnc2O)cc1`, the IC50 on Concanavalin-A turned out to be 234 µM. At Concanavalin-A, `Oc1cc(O)c2c(c1)OC(c1ccc(O)c(O)c1)C(O)C2c1c(O)cc(O)c2c1CC(c1ccc(O)c(O)c1)C(O)C2` (configuration not stated) yielded an IC50 of 479 µM.

Compound `O=C(O)C1CCCCC1c1c2ccc(=O)c(O)c-2oc2c(O)c(O)ccc12` (configuration not stated) came in with an IC50 at Concanavalin-A of 29 µM. Still for that read-out and setting: next, `CO[C@H]1O[C@H](CO)[C@@H](O)[C@H](O)[C@@H]1O`: 350 µM; `NNS(=O)(=O)c1cc(C(=O)O)cc(C(=O)O)c1`: 19 µM.

By inhibition is commonly meant the relative decrease from the control value, in per cent. A low value points to a weak effect. As usually defined, the IC50 is the concentration needed to halve the response being measured.

Source of the values: ChEMBL document CHEMBL1152181, “Rational design of novel glycomimetics: inhibitors of concanavalin A” (Bioorg Med Chem Lett, 2008).
